Experimental data as given in US20040235922A1, “Compositions and methods for inducing adipose tissue cell death” (priority 2003, published 2004).
Entries after “also recorded” stand apart in the source; their conditions may differ.

Assay: 21 day oral (diet) treatment of mice: body weight, food intake, feed efficiency, body temperature, body composition by PIXImus densitometry (Example 1)
Format: in vivo
Conditions: 21 days, ICR mice
Protocol: The effects of clenbuterol, a β2-AR agonist, and ractopamine, a β1/β2-AR agonist, on growth, adiposity and adipose tissue apoptosis in male and female mice have been tested by feeding diets containing control, 200 ppm clenbuterol, or 200 or 800 ppm ractopamine. Food intake (FI) was measured daily; body weight (BW) and temperatures (BT) were measured on days 0, 3, 7, 10, 14, 17, and 20. On day 21 mice were sacrificed, body composition was determined using PIXImus densitometry, and muscle and adipose tissues were collected. There were no treatment effects on BT, FI, BW, feed efficiency or body composition. Retroperitoneal (Rp) and epididymal/parametrial (Epi/Par) fat pad masses were reduced in both 800 ppm ractopamine (40±3 and 207±20 mg, respectively) and clenbuterol (35±7 and 211±22 mg) treated mice compared to control (66±8 and 319±30 mg, p<0.05). Brown adipose tissue (BAT) mass was greater (p<0.05) in clenbuterol treated mice compared to other treatments. Adipose tissue apoptosis (% DNA fragmentation) was increased in Epi/Par fat pads in clenbuterol (5.2+1.1%) and 800 ppm ractopamine (4.1±0.8%) treated mice compared to control (1.7+0.4%, p<0.05).
Animals: Five week old male (n=20) and female (n=20) ICR mice (Harlan Research Laboratories, Indianapolis, Ind.) were allowed to acclimate for one week prior to the experiment start date. Animals were housed singly in suspended wire cages and were provided ground rodent chow (ProLab® RMH 2500; Purina Mills, St. Louis, Mo.) and water ad libitum. Ambient room temperature was maintained and the light/dark cycle was 0600/1800 hours, respectively. Animals were cared for in accordance with the Guide for the Care and Use of Laboratory Animals (Institute of Laboratory Animal Resources Commission on Life Sciences National Research Council. Guide for the Care and Use of Laboratory Animals. National Academy of Sciences, 1996). Prior to the start of the study, animals were briefly anesthetized with isofluorane and an IPPT-200 transponder (programmable ID and temperature, BMDS, Seaford, Del.) was implanted subcutaneously between the scapulae.
Materials: Test articles included clenbuterol (Sigma Chemical Company, St. Louis, Mo., item # C5423) and ractopamine hydrochloride—Paylean® 9 (Elanco Animal Health, Indianapolis, Ind.). Clenbuterol is available as a pure product, and ractopamine is readily available as a type A medicated article. Paylean® 9 contains about 20 g ractopamine hydrochloride per kilogram in a ground corncob base. In order to achieve doses of 200 and 800 ppm it was necessary to add about […] of product per kilogram of diet. Control and clenbuterol diets were prepared with about 80 g of alphacel, which is a diluent used to mimic the effect of the corncob in the ractopamine product. The dose of clenbuterol used in this experiment was similar to those used in previous experiments with mice (Agbenyega E T, and Wareham A C. Effect of clenbuterol on skeletal muscle atrophy in mice induced by the glucocorticoid dexamethasone. Comp Biochem Physiol Comp Physiol 1992;102:141-145, Rothwell N. J., and Stock M J. Modification of body composition by clenbuterol in normal and dystrophic (mdx) mice. Biosci Rep 1985;5:755-760, Hyltander A, Svaninger G, and Lundholm K. The effect of clenbuterol on body composition in spontaneously eating tumour-bearing mice. Biosci Rep 1993;13:325-331, Hayes A, and Williams DA. Long-term clenbuterol administration alters the isometric contractile properties of skeletal muscle from normal and dystrophin-deficient mdx mice. Clin Exp Pharmacol Physiol 1994;21:757-765, Dupont-Versteegden EE. Exercise and clenbuterol as strategies to decrease the progression of muscular dystrophy in mdx mice. J Appl Physiol 1996;80:734-741).
Daily Observations: Food intake was measured daily, while body weight and body temperatures were measured on days 0, 3, 7, 10, 14, 17, and 20 at approximately the same time of day (1300 hours) during the treatment period. […]

CC(C)(C)NCC(O)c1cc(Cl)c(N)c(Cl)c1 (centres unmarked) [Clenbuterol, clenbuterol]
Cumulative Feed Intake (200 ppm in diet): 6.10 g
Densitometry Bone Mineral Content (200 ppm in diet): 0.65 g
Densitometry Fat (200 ppm in diet): 2.81 g
Densitometry Lean (200 ppm in diet): 26.80 g
Feed Efficiency (200 ppm in diet): 14.4
Final Body Weight (200 ppm in diet): 32.1 g
Weight Gain (200 ppm in diet): 8.90 g
Effect on body temperature, food intake, body weight, feed efficiency, body composition (diet): not significantly affected; also recorded: Neither clenbuterol nor ractopamine affected
